Tested on: LecA-treated H1299 cells
Experiment: Scratch-wound healing assay
Assay type: cell-based, human
Conditions: 3.9 μM LecA; for Wound closure after 24 h: 100 μM inhibitor
From the text: The opportunistic bacterium P. aeruginosa depends on favorable circumstances to infect the host, such as a suppressed immunity or wounded skin.[34, 35] Chronic infection of wounds with P. aeruginosa increases the risk of nosocomial spread, are difficult to treat and after systemic dissemination can result in a fatal outcome in patients. In a previous study, we investigated the effect of the fucose‐binding P. aeruginosa lectin LecB on epithelial wound healing.[36] […] Here, we investigated whether LecA also impairs the same physiological process. To this end, H1299 cell monolayers were grown, and after scratching with a pipette tip, wound closure was monitored microscopically (Figure 5a). […] The mode of action of LecA in the wound healing process remains elusive. […] Importantly, when LecA was added to the cells together with L2 (10 μM and 100 μM, respectively), the wound healed at a similar rate to the control in absence of LecA. Remarkably, in presence of 10 μM L2, cell migration was restored to about 70 % compared to the negative control, and the wound closed by 80 % after 24 h of incubation with 100 μM L2 (Figure 5b). […]
using NIS-Element Confocal 4.20 from Nikon and ImageJ 1.52a from Laboratory for Optical and Computational Instrumentation.
Cell proliferation (MTT) assay […]
Subsequently, 10 μL of MTT labelling solution was added to each well and the cells were incubated for another 4 h at 37 °C. […] The next day, the absorbance of the samples was measured at 550 nm using a BioTek microplate reader (BioTek Instruments Inc., Winooski, VT, USA). The data were analyzed using Microsoft Excel and GraphPad Prism […]
2 x 10^5 cells were seeded on 12-well plates and formed a confluent monolayer after 24 h. […] The samples were imaged with an EVOS microscope (PEQLAB by VWR Life Sciences, Avantor Performance Materials Inc., Center Valley, PA, USA) and analyzed with ImageJ and Microsoft Excel. […] Experiment was repeated independently three times (N = 3) and evaluated with two tailed, […]

Structure (SMILES) | Wound closure after 24 h | Cell migration / wound closure restored after 24 h (10 μM inhibitor)
Cc1ccc(NC(=O)CCc2ccc(O[C@@H]3O[C@H](CO)[C@H](O)[C@H](O)[C@H]3O)cc2)cc1S(=O)(=O)O [Compound K2] | about 50% | 
O=C(CCc1ccc(O[C@@H]2O[C@H](CO)[C@H](O)[C@H](O)[C@H]2O)cc1)Nc1ccc(CCc2ccc(NC(=O)CCc3ccc(O[C@@H]4O[C@H](CO)[C@H](O)[C@H](O)[C@H]4O)cc3)cc2S(=O)(=O)O)c(S(=O)(=O)O)c1 [Compound L2] | 80% | about 70%
